Data published in patent EP0723972A1, “Lactylamines and their pharmaceutical application” (STEPAN EUROPE, priority 1995, dated 1996).
Values joined by “and” are separate entries in the source; they are usually repeats but may differ in a detail not shown here. Identical values can stand only once. Like-named read-outs stand apart in the source and are kept apart here.

How the values were obtained:
Type in all cases: cell-based
Aspergillus fumigatus = experiment: Anti-Aspergillus fumigatus in vitro growth inhibition (glucose consumption); settings: for IC50: Aspergillus fumigatus
Excerpt: Différents composés B1 ont été testés du point de vue de leurs propriétés anti-Aspergillus fumigatus, dans un essai in vitro standardisé, complètement décrit dans la publication (7) dont le contenu est incorporé, par référence, à la présente description.
Dans cet essai, la croissance dudit champignon est indiquée par la consommation de glucose qui constitue la seule source de carbone métabolisable, et on mesure la concentration en composé testé nécessaire pour inhiber 50% (IC50), et 90% (IC90) de la croissance du champignon. Deux composés témoin sont utilisés, l'Itraconazole et l'Amphotéricine B, dont les propriétés anti-Aspergillus fumigatus sont connues et qui servent dans cet essai de référence.

CEM non infectées = experiment: Toxicity on uninfected CEM cells, colorimetric formazan (MTT) reduction; settings: lowest concentration inhibiting formazan formation by at least 50%, four days of incubation, macrophage CEM-SS
Description: On détermine aussi la toxicité des composés testés. L'effet toxique sur les CEM non infectées est apprécié par une réaction colorimétrique basée sur la capacité des cellules vivantes à réduire le bromure de 3-(4,5-diméthylthiazol-2-yl)-2,5-diphényltétrazolium en formazan après quatre jours d'incubation en présence de différentes concentrations des composés. Les résultats sont exprimés par la concentration la plus faible de composés qui provoque une inhibition d'au moins 50% de la formation de formazan. Cette concentration est appelée CI50.

VIH (souche BRU) = experiment: Anti-HIV in vitro test: syncytia formation in HIV-infected CEM cells; settings: 96 h
Excerpt: Les composés A (A1, A2) et B (B1, B2) sont testés du point de vue de leurs propriétés anti-VIH selon un protocole d'essai in vitro standardisé et complètement décrit dans les publications (5, 6), dont le contenu est incorporé par référence, à la présente description.
La multiplication du VIH (souche BRU) dans les cellules CEM est évaluée par le nombre de syncytia formés après 4 jours d'infection, résultant de l'interaction entre la glycoprotéine gp120 exprimée par les cellules (BRU) infectées par le VIH, et les lymphocytes T4 (CEM).
Les composés testés sont ajoutés après l'adsorption du virus dans le milieu de culture aux concentrations finales 10^-3M, 10^-4M, 10^-5M, 10^-6M et 10^-7M.
Les résultats sont exprimés par la concentration la plus faible de composés qui diminue la formation des syncytia d'au moins 50%. Cette concentration est appelée EC50. Elle doit être la plus basse possible.

[1] = anti-VIH sur macrophage CEM-SS, lowest concentration reducing syncytia formation by at least 50%, 4 days of infection, read-out: EC50

Structure (SMILES)	IC50 (Aspergillus fumigatus; read-out: CI50)	CI50 (CEM non infectées) [µM]	EC50 (VIH (souche BRU); [1]) [µM]	activité anti-Aspergillus fumigatus (Aspergillus fumigatus; result in words, compared with the reference compound)	IC50 (Aspergillus fumigatus; concentration inhibiting 50% of fungal growth, read-out: CI50 (the source's name))	EC50 (VIH (souche BRU); CEM-SS) [µM]
C[C@@H]1[C@H](O)[C@@H](C)/C=C/C=C/C=C/C=C/C=C/C=C/C=C/[C@H](O[C@@H]2O[C@H](C)[C@@H](O)[C@H](N)[C@@H]2O)C[C@@H]2O[C@](O)(C[C@@H](O)C[C@@H](O)[C@H](O)CC[C@@H](O)C[C@@H](O)CC(=O)O[C@H]1C)C[C@H](O)[C@H]2C(=O)O [Amphotéricine B, reference compound]	0.02 µg/mL and 20 nM	–	–	–	–	–
CCCCCCCCCCCCCC(=O)N(CCCCCCCCC)C[C@H](O)[C@@H](O)[C@H](O[C@@H]1O[C@H](CO)[C@H](O)[C@H](O)[C@H]1O)[C@H](O)CO [B1(9, 13)]	5 µg/mL and 7.4 µM	–	–	–	–	–
CCCCCCCCCCCCCCCC(=O)N(CCCCCCCCC)C[C@H](O)[C@@H](O)[C@H](O[C@@H]1O[C@H](CO)[C@H](O)[C@H](O)[C@H]1O)[C@H](O)CO [B1(9, 15)]	1.6 µg/mL and 2.3 µM	> 100	10	–	–	–
CCCCCCCCCCCCCCCCCC(=O)N(CCCCCCCCC)C[C@H](O)[C@@H](O)[C@H](O[C@@H]1O[C@H](CO)[C@H](O)[C@H](O)[C@H]1O)[C@H](O)CO [B1(9, 17)]	0.5 µg/mL and 600 nM	–	–	proche de celle de l'Amphotéricine B	–	–
CCC(C)n1ncn(-c2ccc(N3CCN(c4ccc(OCC5COC(Cn6cncn6)(c6ccc(Cl)cc6Cl)O5)cc4)CC3)cc2)c1=O (centres unmarked) [Itraconazole, reference compound]	–	–	–	–	0.003 µg/mL and 4 nM	–
CCCCCCCCCCCCNC[C@H](O)[C@@H](O)[C@H](O[C@@H]1O[C@H](CO)[C@H](O)[C@H](O)[C@H]1O)[C@H](O)CO [N-dodécylaminodésoxyl-1-lactitol]	> 100 µg/mL and 195 µM	7000	–	–	–	1000
CCCCCCCCCCCCCCCCNC[C@H](O)[C@@H](O)[C@H](O[C@@H]1O[C@H](CO)[C@H](O)[C@H](O)[C@H]1O)[C@H](O)CO [N-hexadécylaminodésoxy-l-lactitol]	2.2 µg/mL and 3.8 µM	70	–	–	–	50
CCCCCCCCCNC[C@H](O)[C@@H](O)[C@H](O[C@@H]1O[C@H](CO)[C@H](O)[C@H](O)[C@H]1O)[C@H](O)CO [N-nonylaminodésoxy-1-lactitol]	> 100 µg/mL and > 220 µM	40	1	–	–	–
CCCCCCCCCCCCCCNC[C@H](O)[C@@H](O)[C@H](O[C@@H]1O[C@H](CO)[C@H](O)[C@H](O)[C@H]1O)[C@H](O)CO [N-tétradécylaminodésoxy-l-lactitol]	15.2 µg/mL and 28.1 µM	70	–	–	–	50
